Measurements as given in the METLIN SMRT retention time set (Domingo-Almenara et al. 2019).

Assay: gradient 5% acetonitrile 3 min, to 50% in 2 min, to 85% in 15 min, held 3 min, 100 µL/min
Conditions: column: Zorbax Extend-C18 2.1 x 50 mm; eluents: water / acetonitrile, 0.1% formic acid
Method in brief: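 Retention times of pure standards were taken from adduct peaks that were selected by computer and manually inspected. Over 3 months, mixtures of ~100 molecules were run by HPLC–quadrupole time-of-flight mass spectrometry in positive and negative ionization mode. The Zorbax Extend-C18 column (2.1 × 50 mm, 1.8 μm) ran at 100 μL/min in water and acetonitrile, each containing 0.1% formic acid, with 40 μL dead volume and 900 μL dwell volume.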

| RP-LC retention time | Structure (SMILES) |
| --- | --- |
| 603 s | CC1(C)CNc2cc(NC(=O)c3cccnc3NCc3ccncc3)ccc21 |
| 843 s | CC(C)(C)C(=O)Nc1nnc(SCc2nnc(-c3ccc4c(c3)OCO4)o2)s1 |
| 833 s | CCCn1cc(CCNC(=O)c2cccc(Br)c2)c2cccnc21 |
| 707 s | Cc1nc(-c2ccc3c(c2)n(CC(=O)Nc2ccc(S(N)(=O)=O)cc2)c(=O)n3C(C)C)no1 |
| 718 s | COc1ccc(OC)c(NC(=O)N2CCc3c(c(C(=O)N4CCCC4)nn3C)C2)c1 |
| 660 s | COc1ccc(-c2cn3c(CC(=O)NC4CCCC4)csc3n2)cc1OC |
| 630 s | CCn1nc(C)c(CCNC(=O)C2CCCN(C(=O)c3[nH]c(C)cc3C)C2)c1C (stereo not drawn) |
| 597 s | CCOC(=O)c1c(C)c(CCC(=O)NCCN2CCOCC2)n(C)c1C |
| 724 s | CC(C)NC(=O)c1ccc(-c2nnc3ccc(NC(=O)C4CCC4)cn23)cc1 |
| 880 s | Cc1noc(C)c1S(=O)(=O)N1CCc2c(c(-c3nnc(-c4ccccc4)o3)nn2C)C1 |
| 658 s | CCc1nnc(NC(=O)CSc2nnc(Cn3c(=O)sc4ccccc43)n2C)s1 |
| 1320 s | Cc1ccc(-c2csc(NC(=O)COc3c(C)ccc(C)c3C)n2)cc1 |
| 738 s | Cc1ccc(-c2ncccc2CNS(=O)(=O)c2ccc(F)c(F)c2)cc1 |
| 958 s | O=C(Nc1ccccc1F)C1CCN(S(=O)(=O)c2cc(-c3noc(C4CCC4)n3)cs2)CC1 |
| 620 s | COCCn1c(C(CNc2cccc(C)c2)CC(=O)O)nc2ccccc21 (stereo not drawn) |
| 788 s | Nc1nc(CN2CCN(c3ccccn3)CC2)nc(Nc2cccc(Cl)c2)n1 |
| 913 s | CN1C(=O)c2cccc(NC(=O)C3COc4ccccc4O3)c2C1=O (stereo not drawn) |
| 950 s | COc1ccccc1-c1noc(Cn2c(=O)n(-c3ccc(Cl)cc3)c(=O)c3sccc32)n1 |
| 658 s | COc1ccc(NC(=O)N2CCN(Cc3cn(C)c4ccccc34)CC2)cc1 |
| 758 s | CN1C(=O)c2cc(C(=O)NC3CCCCC3)nn2CC1(C)C(=O)NCc1ccccc1 (stereo not drawn) |
| 1050 s | CCOC(=O)c1ccc(NC(=O)c2cnc(-c3ccc(C)cc3)nc2-c2ccncc2)cc1 |
| 903 s | COc1ccc(NC(=O)C2CCN(C(=O)c3nnc(C(=O)Nc4ccc(F)cc4)s3)CC2)cc1 |
| 882 s | CCOc1ccc(N2CC(c3nc(-c4ccc(OC)c(OC)c4)no3)CC2=O)cc1 (stereo not drawn) |

| RP-LC retention time | Structure (SMILES) |
| --- | --- |
| 962 s | Cc1cc(C)cc(NS(=O)(=O)c2cc3c(s2)CCN(C(=O)C2CCC2)C3)c1 |
| 701 s | Cc1ccc(C(=O)Nc2ccc3ncnc(N4CCCCC4)c3c2)s1 |
| 749 s | O=C(Nc1ccccc1F)C1CC(=O)N(c2ccc3c(c2)CCN3C(=O)C2CC2)C1 (stereo not drawn) |
| 738 s | CN1CCc2ccccc2Cc2[nH]c3ccccc3c2CC1 |
| 684 s | O=C(c1ccco1)N1CCCN(c2ccc(=O)n(-c3ccccc3)n2)CC1 |
| 976 s | O=C(Nc1ccc(F)cc1F)C1CCCN(S(=O)(=O)Cc2ccc(F)cc2)C1 (stereo not drawn) |
| 750 s | O=C(Cn1cnc2c(nc3n2CCCCC3)c1=O)N1CCN(c2ccc(Cl)cc2)CC1 |
| 616 s | Cc1nc(N)n(CC(=O)N2CCc3ccccc32)c(=O)c1C |
| 749 s | Cc1nnc(NC(=O)c2cccc(C(F)(F)F)c2)s1 |
| 546 s | CC(C)N1CCC(CNC(=O)c2cccc3ccccc23)CC1 |
| 586 s | OC(c1ccncc1)c1cccc(Cl)c1F (stereo not drawn) |
| 642 s | Cc1ccc(NC(=O)N2CC(n3ccnc3C(C)C)C2)cc1C |
| 956 s | CCOc1ccc(-c2noc(Cn3c(=O)n(CCCOC)c(=O)c4ccccc43)n2)cc1OC |
| 581 s | O=C(CCc1nc2ccccc2[nH]1)N1CCC(c2noc(-c3ccccn3)n2)C1 (stereo not drawn) |
| 723 s | O=C(CSc1ccncc1)N1CCc2cc(-c3csc(C4CC4)n3)ccc21 |
| 614 s | O=C(N[C@@H]1CN(Cc2ccc(C(F)(F)F)cc2)CC[C@@H]1CO)C1CC1 |
| 595 s | Fc1ccc(-c2n[nH]c(C3CCN(Cc4ccoc4)CC3)n2)cc1 |
| 884 s | CN(C)c1ccc(CNc2ncccc2-c2nnc(-c3ccccc3)o2)cc1 |
| 778 s | CCOc1ccc(Nc2c(-c3nc(C)no3)cnc3nc(C)ccc23)cc1 |
| 698 s | CC1CCN(C(=O)CCC(=O)N2CCCN(c3nc4cccnc4s3)CC2)CC1 |
| 932 s | CCCN1CCCCc2cc(C(=O)NCC(F)F)sc21 |
| 811 s | CCn1nccc1C(=O)N1CC(Oc2cccc(-c3nc(C)no3)c2)C1 |
| 788 s | O=C(NC1CC1)c1nc(C(=O)N2CCN(c3ccc(F)cc3)CC2)cs1 |

The remaining lines, values behind:

| Structure (SMILES) | RP-LC retention time |
| --- | --- |
| COc1ccc(CC(=O)Nc2nnc(SCc3nnc(-c4ccccc4)o3)s2)cc1 | 848 s |
| CC(=O)N1CCOc2cc(S(=O)(=O)N3CCCCCC3c3cccc(F)c3)ccc21 (stereo not drawn) | 999 s |
| CC(NC(=O)c1ccccc1)c1nc(-c2ccc(NS(C)(=O)=O)cc2)no1 (stereo not drawn) | 766 s |
| CCC(C)NC(=O)c1ccc(NC(=O)C2CC2)cc1N1CCCCCC1 (stereo not drawn) | 738 s |
| CCOc1ccc(NC(=O)N2CCC(c3nc(C(=O)N4CCCC4)c(C)o3)CC2)cc1 | 764 s |
| COc1cc2c(cc1OC)C(=O)Cc1ccc3c(c1CN(C)CC2)OCO3 | 672 s |
| CN1C(=O)Cc2cc(S(=O)(=O)NCc3ccc4c(c3)CCN4C(=O)c3ccccc3)ccc21 | 771 s |
| O=C(CCc1nnn2c1CN(C(=O)NC1CCCCC1)CC2)N1CCOCC1 | 634 s |
| Cc1nnc([C@@H]2CC(F)(F)CN2C(=O)COc2ccc(F)cc2)o1 | 736 s |
| CC1(C)CC(=O)c2cn(-c3ccccc3)c(=O)c(C(=O)Nc3ccc4c(c3)OCCO4)c2C1 | 976 s |
| COc1ccc(Cl)cc1N1CC(c2nc(-c3ccc(C)cc3)no2)CC1=O (stereo not drawn) | 1050 s |
| COC(=O)c1cnc2nc(C)ccc2c1Nc1ccccc1F | 649 s |
| Cc1noc(C)c1CCC(=O)N1CCCn2ccnc2C1C(C)C (stereo not drawn) | 590 s |
| Cc1cc(C)cc(NC(=O)Nc2nccn(-c3ccc4c(c3)CCC4)c2=O)c1 | 1210 s |
| O=C(Nc1ccc2c(c1)N(C(=O)c1ccccc1)CCC2)c1cccs1 | 876 s |
| CC(C)c1ccc(-c2nc3ccccc3s2)cc1 | 958 s |
| CCCCOc1ccc(-c2cc3c(N4CCN(CC)CC4)nccn3n2)cc1 | 775 s |
| O=C1N(c2cccc(F)c2)c2ncccc2S(=O)(=O)N1Cc1cccc(F)c1 | 1030 s |
| Cc1cccc(-c2noc(Cn3c(=O)n(-c4cccc(F)c4)c(=O)c4sccc43)n2)c1 | 1030 s |
| O=C(c1ccc(F)c(F)c1)N1CCN(S(=O)(=O)c2cc3c4c(c2)CCC(=O)N4CCC3)CC1 | 807 s |
| CCn1ccc(C(=O)N2CCCn3nc(-c4ccc(OC)cc4)cc3C2)n1 | 756 s |

| Structure (SMILES) | RP-LC retention time |
| --- | --- |
| CCN1C(=O)CCC2(C(=O)NCCc3c[nH]c4ccccc34)CCCC=C12 (stereo not drawn) | 743 s |
| COc1cc(OC)cc(N2C=C(C#N)S(=O)(=O)c3ccc(C)cc32)c1 | 948 s |
| CCN1CCN(Cc2ccc(C(=O)Nc3ccc(C)c(Oc4ccc5c(c4)CC(=O)N5)c3)cc2C(F)(F)F)CC1 | 817 s |
| Cc1ccc(Nc2c(-c3ccc(N4CCOCC4)cc3)nc3cc(C)ccn23)cc1 | 769 s |
| CCSc1nnc(-c2nn(C)c3c2CN(S(=O)(=O)c2ccc(Cl)cc2)CC3)n1CC | 983 s |
| Cc1noc2ncnc(N3CCC(C(=O)NCCCN4CCCCC4C)CC3)c12 (stereo not drawn) | 587 s |
| O=c1cc(-c2ccccc2)c2c(O)cc(O)cc2o1 | 721 s |
| CCn1c(=O)c(N2CCC(NC(=O)NC)CC2)nc2ccccc21 | 759 s |
| CCCCNC(=O)C1CCN(C(=O)Nc2ccc(NC(=O)Nc3ccccc3)cc2)CC1 | 729 s |
| Cc1cc(NS(=O)(=O)c2cc3n(c2)CCCNC3=O)ccc1F | 671 s |
| CC(C)n1cc(S(=O)(=O)N2CCN(c3ccccc3F)CC2)c2cccnc21 | 1100 s |
| Cc1ccc(CNC(=O)Cn2c(=O)cc(-c3nc(C4CC4)no3)c3ccccc32)cc1 | 950 s |
| O=C(COc1ccc(Cl)cc1)N1CCN(CC(F)(F)F)CC1 | 853 s |
| COc1ccc(C(=O)Nc2nnc(SCc3nnc(-c4ccccc4)o3)s2)cc1 | 899 s |
| O=C(c1nnc(-c2ccc(S(=O)(=O)N3CCOCC3)cc2)o1)N1CCOCC1 | 689 s |
| CCC(=O)n1nc(-c2ccccc2Cl)nc1N | 837 s |
| Cc1occc1-c1nnc(SCC(=O)N2CCCc3ccccc32)o1 | 962 s |
| CCCC(=O)Nc1ccc2c(c1)C(=O)CC(c1ccc3c(c1)OCO3)O2 (stereo not drawn) | 808 s |
| COc1ccc(NS(=O)(=O)c2cc(-c3[nH]ncc3C(=O)N(C)C)oc2C)cc1F | 672 s |
| Cc1cc(F)ccc1NC(=O)CCc1c(C)nn(-c2cc(N(C)C)ncn2)c1C | 778 s |
| O=c1ccn(-c2cccc(F)c2)nc1-c1nc(-c2cccc(Cl)c2)no1 | 992 s |
